From ChEMBL document CHEMBL5143732 (J Med Chem, 2022)
Converted amounts (≈) assume the structure as drawn.

How the values were obtained:
[1] = Observed AUC infinity in ICR (CD-1) mouse at 1 mg/kg, iv measured upto 24 hrs; type: ADME, organism-based; set-up: dose 1 mg/kg, time < 24 hrs, route iv; conditions: ICR (CD-1), in vivo
Candida parapsilosis = assay: Antifungal activity against Candida parapsilosis assessed as inhibition of fungal growth measured after 48 hrs by CLSI based agar dilution method; type: functional; conditions: Lodderomyces parapsilosis
Pichia kudriavzevii [2] = assay: Antifungal activity against Candida krusei ATCC 6258 assessed as inhibition of fungal growth measured after 48 hrs by CLSI based agar dilution method; type: functional
[3] = Observed MRT infinity in ICR (CD-1) mouse at 1 mg/kg, iv measured upto 24 hrs; type: ADME, organism-based; conditions: in vivo
[4] = Observed volume of distribution at steady state in ICR (CD-1) mouse at 1 mg/kg, iv measured upto 24 hrs; type: ADME, organism-based; conditions: in vivo, read-out: Vdss
Candida albicans = assay: Antifungal activity against Candida albicans assessed as inhibition of fungal growth measured after 48 hrs by CLSI based agar dilution method; type: functional
[5] = Observed clearance in ICR (CD-1) mouse at 1 mg/kg, iv measured upto 24 hrs; type: ADME, organism-based; set-up: dose 1 mg/kg, time < 24 hrs, route iv; conditions: in vivo, route iv, dose 1 mg/kg, time < 24 hrs, read-out: CL
[6] = Elimination half life in ICR (CD-1) mouse at 1 mg/kg, iv measured upto 24 hrs; type: ADME, organism-based; conditions: in vivo, read-out: beta t1/2 (converted)
[7] = AUClast in ICR (CD-1) mouse at 1 mg/kg, iv measured upto 24 hrs; type: ADME, organism-based; set-up: dose 1 mg/kg, time < 24 hrs, route iv; conditions: ICR (CD-1), in vivo
[8] = Hemolytic activity in human RBC measured after 1 hr; type: toxicity, cell-based, Erythrocyte; conditions: red blood cells (erythrocytes)
Candida tropicalis = assay: Antifungal activity against Candida tropicalis assessed as inhibition of fungal growth measured after 48 hrs by CLSI based agar dilution method; type: functional
Cryptococcus neoformans = assay: Antifungal activity against Cryptococcus neoformans ATCC 32609 assessed as inhibition of fungal growth measured after 48 hrs by CLSI based agar dilution method; type: functional
Pichia kudriavzevii [9] = assay: Antifungal activity against Candida krusei assessed as inhibition of fungal growth measured after 48 hrs by CLSI based agar dilution method; type: functional

Row | Structure (SMILES) | AUC(0-inf) [1] [ng·h/mL] | MIC (Candida parapsilosis) [µg/mL] | MIC (Pichia kudriavzevii [2]) [µg/mL] | MRT inf [3] [h] | Vd [4] [L/kg] | MIC (Candida albicans) [µg/mL] | clearance [5] [mL/min/kg] | half-life [6] [h] | AUC(0-t) at 24 h [7] [ng·h/mL] | HC50 at 1 h [8] [µM] | MIC (Candida tropicalis) [µg/mL] | MIC (Cryptococcus neoformans) [µg/mL] | MIC (Pichia kudriavzevii [9]) [µg/mL]
1 | C[C@@H]1[C@H](O)[C@@H](C)/C=C/C=C/C=C/C=C/C=C/C=C/C=C/[C@H](O[C@@H]2O[C@H](C)[C@@H](O)[C@H](NC(=O)CN)[C@@H]2O)C[C@@H]2O[C@](O)(C[C@@H](O)C[C@@H](O)[C@H](O)CC[C@@H](O)C[C@@H](O)CC(=O)O[C@H]1C)C[C@H](O)[C@H]2C(=O)NCCN | 18300 | 0.015 (≈ 0.0147 µM) | 0.5 (≈ 0.489 µM) | 24.9 | 1.37 | < 0.008 | 0.913 | 18.2 | 11500 | 18.2 | 0.03 (≈ 0.0293 µM) | < 0.008 | 0.06 (≈ 0.0586 µM)
2 | CNCC(=O)N[C@@H]1[C@H](O)[C@H](O[C@H]2/C=C/C=C/C=C/C=C/C=C/C=C/C=C/[C@H](C)[C@@H](O)[C@@H](C)[C@H](C)OC(=O)C[C@H](O)C[C@H](O)CC[C@@H](O)[C@H](O)C[C@H](O)C[C@]3(O)C[C@H](O)[C@@H](C(=O)N4CCN(CC(C)(O)CO)CC4)[C@H](C2)O3)O[C@H](C)[C@H]1O (some centres undefined) | – | 2 (≈ 1.74 µM) | 8 (≈ 6.95 µM) | – | – | 0.06 (≈ 0.0521 µM) | – | – | – | 20.6 | 1 (≈ 0.869 µM) | 0.5 (≈ 0.434 µM) | 0.5 (≈ 0.434 µM)
3 | C[C@@H]1[C@H](O)[C@@H](C)/C=C/C=C/C=C/C=C/C=C/C=C/C=C/[C@H](O[C@@H]2O[C@H](C)[C@@H](O)[C@H](NC(=O)CN)[C@@H]2O)C[C@@H]2O[C@](O)(C[C@@H](O)C[C@@H](O)[C@H](O)CC[C@@H](O)C[C@@H](O)CC(=O)O[C@H]1C)C[C@H](O)[C@H]2C(=O)N1CCN(CCO)CC1 | 3440 | 0.5 (≈ 0.457 µM) | 8 (≈ 7.32 µM) | 10.5 | 3.06 | 0.25 (≈ 0.229 µM) | 4.85 | 7.72 | 3060 | 30.6 | 0.25 (≈ 0.229 µM) | 0.25 (≈ 0.229 µM) | 0.25 (≈ 0.229 µM)
4 | CNCC(=O)N[C@@H]1[C@H](O)[C@H](O[C@H]2/C=C/C=C/C=C/C=C/C=C/C=C/C=C/[C@H](C)[C@@H](O)[C@@H](C)[C@H](C)OC(=O)C[C@H](O)C[C@H](O)CC[C@@H](O)[C@H](O)C[C@H](O)C[C@]3(O)C[C@H](O)[C@@H](C(=O)N4CCN(CC(C)(C)O)CC4)[C@H](C2)O3)O[C@H](C)[C@H]1O | – | 4 (≈ 3.52 µM) | 16 (≈ 14.1 µM) | – | – | 0.25 (≈ 0.22 µM) | – | – | – | 27.7 | 1 (≈ 0.881 µM) | 0.5 (≈ 0.44 µM) | 0.5 (≈ 0.44 µM)
5 | C[C@@H]1[C@H](O)[C@@H](C)/C=C/C=C/C=C/C=C/C=C/C=C/C=C/[C@H](O[C@@H]2O[C@H](C)[C@@H](O)[C@H](NC(=O)CCN)[C@@H]2O)C[C@@H]2O[C@](O)(C[C@@H](O)C[C@@H](O)[C@H](O)CC[C@@H](O)C[C@@H](O)CC(=O)O[C@H]1C)C[C@H](O)[C@H]2C(=O)N1CCN(CCO)CC1 | 6210 | 0.5 (≈ 0.452 µM) | 8 (≈ 7.22 µM) | 15.3 | 2.48 | 0.5 (≈ 0.452 µM) | 2.7 | 11.2 | 4890 | 24.4 | 1 (≈ 0.903 µM) | 0.25 (≈ 0.226 µM) | 0.5 (≈ 0.452 µM)
6 | CNCC(=O)N[C@@H]1[C@H](O)[C@H](O[C@H]2/C=C/C=C/C=C/C=C/C=C/C=C/C=C/[C@H](C)[C@@H](O)[C@@H](C)[C@H](C)OC(=O)C[C@H](O)C[C@H](O)CC[C@@H](O)[C@H](O)C[C@H](O)C[C@]3(O)C[C@H](O)[C@@H](C(=O)NCCO)[C@H](C2)O3)O[C@H](C)[C@H]1O | – | 2 (≈ 1.93 µM) | 0.125 (≈ 0.12 µM) | – | – | 1 (≈ 0.963 µM) | – | – | – | 1.79 | 2 (≈ 1.93 µM) | 0.5 (≈ 0.482 µM) | 1 (≈ 0.963 µM)
7 | CNCC(=O)N[C@@H]1[C@H](O)[C@H](O[C@H]2/C=C/C=C/C=C/C=C/C=C/C=C/C=C/[C@H](C)[C@@H](O)[C@@H](C)[C@H](C)OC(=O)C[C@H](O)C[C@H](O)CC[C@@H](O)[C@H](O)C[C@H](O)C[C@]3(O)C[C@H](O)[C@@H](C(=O)N4CCN(CCO)CC4)[C@H](C2)O3)O[C@H](C)[C@H]1O | – | 0.5 (≈ 0.452 µM) | 2 (≈ 1.81 µM) | – | – | 0.125 (≈ 0.113 µM) | – | – | – | 15.1 | 0.5 (≈ 0.452 µM) | 0.03 (≈ 0.0271 µM) | 0.25 (≈ 0.226 µM)
8 | CCOC(=O)NNC(=O)[C@H]1[C@@H]2C[C@@H](O[C@@H]3O[C@H](C)[C@@H](O)[C@H](N)[C@@H]3O)/C=C/C=C/C=C/C=C/C=C/C=C/C=C/[C@H](C)[C@@H](O)[C@@H](C)[C@H](C)OC(=O)C[C@H](O)C[C@H](O)CC[C@@H](O)[C@H](O)C[C@H](O)C[C@](O)(C[C@@H]1O)O2 | – | 2 (≈ 1.98 µM) | 0.5 (≈ 0.495 µM) | – | – | 0.25 (≈ 0.247 µM) | – | – | – | 6.29 | 2 (≈ 1.98 µM) | 0.06 (≈ 0.0594 µM) | 0.25 (≈ 0.247 µM)
9 | COC(=O)NNC(=O)[C@H]1[C@@H]2C[C@@H](O[C@@H]3O[C@H](C)[C@@H](O)[C@H](NC(=O)CN)[C@@H]3O)/C=C/C=C/C=C/C=C/C=C/C=C/C=C/[C@H](C)[C@@H](O)[C@@H](C)[C@H](C)OC(=O)C[C@H](O)C[C@H](O)CC[C@@H](O)[C@H](O)C[C@H](O)C[C@](O)(C[C@@H]1O)O2 | – | 2 (≈ 1.9 µM) | 0.5 (≈ 0.475 µM) | – | – | 0.06 (≈ 0.057 µM) | – | – | – | 8.84 | 0.25 (≈ 0.237 µM) | 1.12 (≈ 1.07 µM) | 0.125 (≈ 0.119 µM)
10 | COC(=O)NNC(=O)[C@H]1[C@@H]2C[C@@H](O[C@@H]3O[C@H](C)[C@@H](O)[C@H](N)[C@@H]3O)/C=C/C=C/C=C/C=C/C=C/C=C/C=C/[C@H](C)[C@@H](O)[C@@H](C)[C@H](C)OC(=O)C[C@H](O)C[C@H](O)CC[C@@H](O)[C@H](O)C[C@H](O)C[C@](O)(C[C@@H]1O)O2 | – | 0.5 (≈ 0.502 µM) | 0.25 (≈ 0.251 µM) | – | – | 0.015 (≈ 0.0151 µM) | – | – | – | 5.69 | 0.5 (≈ 0.502 µM) | 0.125 (≈ 0.125 µM) | 0.015 (≈ 0.0151 µM)
11 | CC(=O)NNC(=O)[C@H]1[C@@H]2C[C@@H](O[C@@H]3O[C@H](C)[C@@H](O)[C@H](NC(=O)CN)[C@@H]3O)/C=C/C=C/C=C/C=C/C=C/C=C/C=C/[C@H](C)[C@@H](O)[C@@H](C)[C@H](C)OC(=O)C[C@H](O)C[C@H](O)CC[C@@H](O)[C@H](O)C[C@H](O)C[C@](O)(C[C@@H]1O)O2 | – | 2 (≈ 1.93 µM) | 1 (≈ 0.964 µM) | – | – | 0.06 (≈ 0.0578 µM) | – | – | – | 6 | 2 (≈ 1.93 µM) | 0.125 (≈ 0.121 µM) | 0.125 (≈ 0.121 µM)
12 | CC(=O)NNC(=O)[C@H]1[C@@H]2C[C@@H](O[C@@H]3O[C@H](C)[C@@H](O)[C@H](N)[C@@H]3O)/C=C/C=C/C=C/C=C/C=C/C=C/C=C/[C@H](C)[C@@H](O)[C@@H](C)[C@H](C)OC(=O)C[C@H](O)C[C@H](O)CC[C@@H](O)[C@H](O)C[C@H](O)C[C@](O)(C[C@@H]1O)O2 | – | 1 (≈ 1.02 µM) | 1 (≈ 1.02 µM) | – | – | 0.25 (≈ 0.255 µM) | – | – | – | 5.61 | 2 (≈ 2.04 µM) | 0.125 (≈ 0.128 µM) | 0.125 (≈ 0.128 µM)
13 | CNCC(=O)N[C@@H]1[C@H](O)[C@H](O[C@H]2/C=C/C=C/C=C/C=C/C=C/C=C/C=C/[C@H](C)[C@@H](O)[C@@H](C)[C@H](C)OC(=O)C[C@H](O)C[C@H](O)CC[C@@H](O)[C@H](O)C[C@H](O)C[C@]3(O)C[C@H](O)[C@@H](C(=O)N4CCC(O)CC4)[C@H](C2)O3)O[C@H](C)[C@H]1O | – | 2 (≈ 1.85 µM) | 4 (≈ 3.71 µM) | – | – | 0.5 (≈ 0.464 µM) | – | – | – | 6.3 | 2 (≈ 1.85 µM) | 0.25 (≈ 0.232 µM) | 2 (≈ 1.85 µM)
